From patent US20250375435A1, “COMPOUNDS FOR TREATING INFECTIONS” (Ohio State Innovation Foundation, priority 2022, published 2025) come the findings set out here.

In the assay the test system is Salmonella. Briefly: Single-infection mouse model with probiotic strain added 1:1 to wild-type or fraB mutant Salmonella. In kind it is in vivo, streptomycin-treated Swiss Webster mice. The following applies: presence or absence of probiotic or exogenous F-Asn, day 4 post-infection. The protocol: A quadruple mutant designated ASD203 (ASPII ASPI2 AfraRBDAE4 AasnB80:kan) was evaluated for use as a probiotic in combination with FraB inhibitors. This is a strain of Salmonella lacking SPI1 and SPI2 so that it cannot induce inflammation. Additionally, this strain cannot consume F-Asn due to a deletion of the entire fra island (fraR-fraBDAE). The ansB gene was also deleted as this asparaginase is capable of converting F-Asn to F-Asp. The addition of this probiotic should provide an inflammation resistant competitor to Salmonella for all nutrients except F-Asn, effectively forcing the use of F-Asn as a nutrient. […]
Mouse modeling experiments—For competition experiments, a 1:1 mixture of two different bacterial strains were inoculated intragastrically (i.g.) and then recovered from ceca to determine the competitive index (CI) of the two strains. […] CI was determined by plating on media selective for WT (LB cam) and mutant (LB kan). For the competitions with the fraB F214A mutant which is not marked, CI was determined by screening 52 individual colonies recovered from XLD plates for antibiotic resistance by patching on LB plates containing the appropriate antibiotic, thus the limit of detection on these experiments is less than two logs. […] CFU enumeration was determined by plating on media selective for WT (LB cam) and the mutant (LB kan). […]

In the case of fructose-asparagine [F-Asn], the “numbers of fraB mutant bacteria recovered” value is “not significantly different”.
